# Laboratory results as given in the supplement of paper PMC4862054.
# What was measured:
# Conditions in all cases: incubation time: 72 h
# [1] = tested on: HDQ-P1; assay: normalised viability (% of control), CellTiter-Blue; higher = more viable cells (100 = DMSO, 0 = benzethonium chloride kill control)
# Procedure, shortened: (§1)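 Each entry is normalised viability at a single listed concentration within a series. It comes from breast cancer cell lines incubated 72 h with compound in 384-well plates, then measured with CellTiter-Blue fluorescence at 560/590 nm. Every plate was normalised between vehicle (100) and a positive kill control (0).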
# [2] = tested on: DU-4475; assay: as above
# Procedure, shortened: as §1
# [3] = tested on: HCC1937; assay: as above
# Procedure, shortened: as §1
# [4] = tested on: MDA-MB-231; assay: as above
# Procedure, shortened: as §1
# [5] = tested on: BT-549; assay: as above
# Procedure, shortened: as §1
# [6] = tested on: CAL-85-1; assay: as above
# Procedure, shortened: as §1
# [7] = tested on: MDA-MB-453; assay: as above
# Procedure, shortened: as §1
# [8] = tested on: HCC1143; assay: as above
# Procedure, shortened: as §1
# [9] = tested on: CAL-120; assay: as above
# Procedure, shortened: as §1
# [10] = tested on: BT-474; assay: as above
# Procedure, shortened: as §1
# [11] = tested on: MDA-MB-468; assay: as above
# Procedure, shortened: as §1
# [12] = tested on: HCC1599; assay: as above
# Procedure, shortened: as §1
# [13] = tested on: MDA-MB-436; assay: as above
# Procedure, shortened: as §1
# [14] = tested on: SK-BR-3; assay: as above
# Procedure, shortened: as §1
# [15] = tested on: Hs578T; assay: as above
# Procedure, shortened: as §1
# [16] = tested on: CAL-148; assay: as above
# Procedure, shortened: as §1
# [17] = tested on: MFM-223; assay: as above
# Procedure, shortened: as §1
# [18] = tested on: CAL-51; assay: as above
# Procedure, shortened: as §1
# [19] = tested on: HDQ-P1; assay: normalised response (% of control), CellTiter-Glo; higher = more viable cells (100 = DMSO, 0 = benzethonium chloride kill control)
# Procedure, shortened: (§2)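 Compound was dispensed into 384-well plates at 5 concentrations in 10-fold steps spanning a 10,000-fold range specific to that compound. Breast cancer cell lines were added as 20 µl suspension and left for 72 h before CellTox Green fluorescence (485/520 nm) and then CellTiter-Glo luminescence, read after 10 min at room temperature. Each reported value is the normalised signal at one concentration, with 0.1 % DMSO set at 100 and a positive kill control at 0 on each plate.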
# [20] = tested on: DU-4475; assay: as above
# Procedure, shortened: as §2
# [21] = tested on: HCC1937; assay: as above
# Procedure, shortened: as §2
# [22] = tested on: MDA-MB-231; assay: as above
# Procedure, shortened: as §2
# [23] = tested on: BT-549; assay: as above
# Procedure, shortened: as §2
# [24] = tested on: CAL-85-1; assay: as above
# Procedure, shortened: as §2
# [25] = tested on: MCF-10A; assay: as above
# Procedure, shortened: as §2
# [26] = tested on: MDA-MB-453; assay: as above
# Procedure, shortened: as §2
# [27] = tested on: HCC1143; assay: as above
# Procedure, shortened: as §2
# [28] = tested on: CAL-120; assay: as above
# Procedure, shortened: as §2
# [29] = tested on: BT-474; assay: as above
# Procedure, shortened: as §2
# [30] = tested on: MDA-MB-468; assay: as above
# Procedure, shortened: as §2
# [31] = tested on: HCC1599; assay: as above
# Procedure, shortened: as §2
# [32] = tested on: MDA-MB-436; assay: as above
# Procedure, shortened: as §2
# [33] = tested on: SK-BR-3; assay: as above
# Procedure, shortened: as §2
# [34] = tested on: Hs578T; assay: as above
# Procedure, shortened: as §2
# [35] = tested on: CAL-148; assay: as above
# Procedure, shortened: as §2
# [36] = tested on: MFM-223; assay: as above
# Procedure, shortened: as §2
# [37] = tested on: CAL-51; assay: as above
# Procedure, shortened: as §2
SMILES,normalised viability [1],normalised viability [2],normalised viability [3],normalised viability [4],normalised viability [5],normalised viability [6],normalised viability [7],normalised viability [8],normalised viability [9],normalised viability [10],normalised viability [11],normalised viability [12],normalised viability [13],normalised viability [14],normalised viability [15],normalised viability [16],normalised viability [17],normalised viability [18],normalised response [19],normalised response [20],normalised response [21],normalised response [22],normalised response [23],normalised response [24],normalised response [25],normalised response [26],normalised response [27],normalised response [28],normalised response [29],normalised response [30],normalised response [31],normalised response [32],normalised response [33],normalised response [34],normalised response [35],normalised response [36],normalised response [37]
COc1cc2c(Oc3ccc(NC(=O)C4(C(=O)Nc5ccc(F)cc5)CC4)cc3F)ccnc2cc1OCCCN1CCOCC1 [Foretinib] (0.1 nM),75.8%,100%,101%,102%,94.6%,90.2%,95%,100%,92.1%,99.9%,101%,98.9%,95.8%,89%,110%,107%,97%,91.8%,105%,102%,99.2%,99.7%,104%,100%,97.2%,109%,99%,100%,105%,108%,93.4%,107%,107%,89.5%,109%,102%,74.1%
NC(=O)NO [Hydroxyurea] (10 nM),116%,123%,95.8%,101%,99.2%,109%,105%,102%,98.9%,97.2%,112%,113%,109%,52%,107%,107%,104%,100%,97.3%,106%,91.6%,98.3%,108%,98.5%,110%,110%,104%,96.7%,98.6%,103%,101%,90.1%,113%,101%,101%,105%,74.9%
O=NN(CCCl)C(=O)NC1CCCCC1 [Lomustine] (1 nM),110%,102%,86.3%,97.3%,107%,98.8%,114%,95.2%,91.6%,88%,100%,109%,109%,93.6%,100%,107%,83.4%,108%,97.2%,93.9%,94.9%,97.5%,94.2%,97.6%,107%,108%,105%,99.1%,101%,99.3%,105%,98.2%,104%,106%,94.4%,97.5%,91.6%
O=C(O)CC[C@H]1CC[C@@](c2cc(F)ccc2F)(S(=O)(=O)c2ccc(Cl)cc2)CC1 [MK-0752] (0.1 nM),99.9%,106%,84.8%,99.2%,117%,100%,117%,99.7%,88.8%,119%,96.7%,103%,109%,94.4%,106%,106%,102%,98.2%,97.8%,97.5%,100%,104%,103%,99.5%,116%,116%,102%,95.5%,101%,102%,79.3%,101%,111%,98.7%,101%,106%,68.8%
